Measurements: article PMC5540273, “Progress towards a public chemogenomic set for protein kinases and a call for contributions” (PLoS ONE, 2017)

Each molecule was assayed against CSNK2A2 (Homo sapiens, UniProt P19784) (assay: KINOMEscan competition binding). Details: read-out: %Inh CSNK2A2.

Row | Compound | inhibition at 1 µM
1 | O=c1cc(N2CCOCC2)nc2n(Cc3cccc(Cl)c3Cl)c(C3CC3)nn12 [UNC10225469A] | 0%
2 | Cn1cc(-c2cnc(N)c3c(-c4ccc5c(c4)CCN5C(=O)Cc4ccccc4)csc23)cn1 [UNC10225012A] | 1%
3 | CS(=O)(=O)Cc1ccc(Nc2nccc(-c3c(-c4cccc(NC(=O)C5CCCCC5)c4)nn4ncccc34)n2)cc1 [UNC10225159A] | 1%
4 | COc1cccc(OC)c1C(=O)Nc1cccc(-c2nn3ccccc3c2-c2ccnc(Nc3cccc(F)c3)n2)c1 [UNC10225310A] | 23%
5 | Cc1ccc(NC(=O)Nc2cccc(C(F)(F)F)c2)cc1 [UNC10225187A] | 0%

The molecules below were run against DYRK1B (Homo sapiens, UniProt Q9Y463) (assay: KINOMEscan competition binding). Details: read-out: %Inh DYRK1B.

Row | Compound | inhibition at 1 µM
6 | O=c1cc(N2CCOCC2)nc2n(Cc3cccc(Cl)c3Cl)c(C3CC3)nn12 [UNC10225469A] | 0%
7 | Cn1cc(-c2cnc(N)c3c(-c4ccc5c(c4)CCN5C(=O)Cc4ccccc4)csc23)cn1 [UNC10225012A] | 0%
8 | CS(=O)(=O)Cc1ccc(Nc2nccc(-c3c(-c4cccc(NC(=O)C5CCCCC5)c4)nn4ncccc34)n2)cc1 [UNC10225159A] | 0%
9 | COc1cccc(OC)c1C(=O)Nc1cccc(-c2nn3ccccc3c2-c2ccnc(Nc3cccc(F)c3)n2)c1 [UNC10225310A] | 24%
10 | Cc1ccc(NC(=O)Nc2cccc(C(F)(F)F)c2)cc1 [UNC10225187A] | 0%

What follows are molecules tested against T1, IKK-alpha (Homo sapiens, UniProt O15111) (assay: KINOMEscan competition binding). Details: read-out: %Inh IKK-alpha.
T1 sequence (O15111 1-745): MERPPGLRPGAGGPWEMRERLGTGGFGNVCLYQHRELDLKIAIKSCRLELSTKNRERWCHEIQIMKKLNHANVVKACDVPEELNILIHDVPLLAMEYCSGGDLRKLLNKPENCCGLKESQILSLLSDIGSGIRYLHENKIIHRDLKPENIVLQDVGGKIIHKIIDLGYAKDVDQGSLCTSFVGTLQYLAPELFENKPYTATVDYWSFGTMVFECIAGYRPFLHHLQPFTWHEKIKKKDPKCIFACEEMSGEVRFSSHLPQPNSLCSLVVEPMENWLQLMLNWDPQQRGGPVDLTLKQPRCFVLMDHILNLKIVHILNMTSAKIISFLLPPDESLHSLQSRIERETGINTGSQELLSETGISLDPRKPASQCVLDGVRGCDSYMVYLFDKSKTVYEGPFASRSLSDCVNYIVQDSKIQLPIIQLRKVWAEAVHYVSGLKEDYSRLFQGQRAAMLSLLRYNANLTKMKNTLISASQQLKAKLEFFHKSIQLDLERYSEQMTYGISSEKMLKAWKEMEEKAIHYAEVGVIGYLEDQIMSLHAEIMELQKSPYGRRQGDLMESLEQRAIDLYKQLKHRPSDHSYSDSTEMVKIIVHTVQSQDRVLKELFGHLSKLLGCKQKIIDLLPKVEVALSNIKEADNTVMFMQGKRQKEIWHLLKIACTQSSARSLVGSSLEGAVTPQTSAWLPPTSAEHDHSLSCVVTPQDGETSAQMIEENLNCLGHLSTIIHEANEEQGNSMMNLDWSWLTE

Row | Compound | inhibition at 1 µM
11 | O=c1cc(N2CCOCC2)nc2n(Cc3cccc(Cl)c3Cl)c(C3CC3)nn12 [UNC10225469A] | 0%
12 | Cn1cc(-c2cnc(N)c3c(-c4ccc5c(c4)CCN5C(=O)Cc4ccccc4)csc23)cn1 [UNC10225012A] | 0%
13 | CS(=O)(=O)Cc1ccc(Nc2nccc(-c3c(-c4cccc(NC(=O)C5CCCCC5)c4)nn4ncccc34)n2)cc1 [UNC10225159A] | 0%
14 | COc1cccc(OC)c1C(=O)Nc1cccc(-c2nn3ccccc3c2-c2ccnc(Nc3cccc(F)c3)n2)c1 [UNC10225310A] | 0%
15 | Cc1ccc(NC(=O)Nc2cccc(C(F)(F)F)c2)cc1 [UNC10225187A] | 0%

Each molecule was assayed against T2, DMPK (Homo sapiens, UniProt Q09013) (assay: KINOMEscan competition binding). Details: read-out: %Inh DMPK.
T2 sequence (Q09013 1-629): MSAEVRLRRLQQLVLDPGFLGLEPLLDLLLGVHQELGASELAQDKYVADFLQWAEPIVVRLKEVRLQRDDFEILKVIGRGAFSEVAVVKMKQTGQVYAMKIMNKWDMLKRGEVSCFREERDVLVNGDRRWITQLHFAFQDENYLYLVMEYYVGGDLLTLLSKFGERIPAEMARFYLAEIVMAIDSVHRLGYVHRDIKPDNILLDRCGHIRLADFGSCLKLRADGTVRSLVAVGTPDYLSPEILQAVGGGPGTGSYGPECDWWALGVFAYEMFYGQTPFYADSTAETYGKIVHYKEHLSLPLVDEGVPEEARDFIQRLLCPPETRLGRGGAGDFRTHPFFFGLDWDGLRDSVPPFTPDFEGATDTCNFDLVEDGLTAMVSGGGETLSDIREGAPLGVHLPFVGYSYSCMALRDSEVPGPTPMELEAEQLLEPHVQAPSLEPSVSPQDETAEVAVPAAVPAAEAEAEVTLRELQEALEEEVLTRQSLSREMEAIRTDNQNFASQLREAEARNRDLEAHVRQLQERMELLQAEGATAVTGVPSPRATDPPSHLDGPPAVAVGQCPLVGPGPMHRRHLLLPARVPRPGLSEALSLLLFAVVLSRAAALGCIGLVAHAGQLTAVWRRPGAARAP

Row | Compound | inhibition at 1 µM
16 | O=c1cc(N2CCOCC2)nc2n(Cc3cccc(Cl)c3Cl)c(C3CC3)nn12 [UNC10225469A] | 0%
17 | Cn1cc(-c2cnc(N)c3c(-c4ccc5c(c4)CCN5C(=O)Cc4ccccc4)csc23)cn1 [UNC10225012A] | 0%
18 | CS(=O)(=O)Cc1ccc(Nc2nccc(-c3c(-c4cccc(NC(=O)C5CCCCC5)c4)nn4ncccc34)n2)cc1 [UNC10225159A] | 0%
19 | COc1cccc(OC)c1C(=O)Nc1cccc(-c2nn3ccccc3c2-c2ccnc(Nc3cccc(F)c3)n2)c1 [UNC10225310A] | 2%
20 | Cc1ccc(NC(=O)Nc2cccc(C(F)(F)F)c2)cc1 [UNC10225187A] | 0%

These molecules were tested on 392 wild-type human kinases (assay: KINOMEscan assay panel, PKIS2 profiling). Details: 1 μM.
Assay type: binding
Source text: Since the assay was only run in singlicate it was important to follow up actives with Kd determinations.

Row | Compound | >70 (number of kinases with %Inh >70) | >80 (number of kinases with %Inh >80) | >90 (number of kinases with %Inh >90)
21 | O=c1cc(N2CCOCC2)nc2n(Cc3cccc(Cl)c3Cl)c(C3CC3)nn12 [UNC10225469A] | 3 | 3 | 2
22 | Cn1cc(-c2cnc(N)c3c(-c4ccc5c(c4)CCN5C(=O)Cc4ccccc4)csc23)cn1 [UNC10225012A] | 42 | 36 | 27
23 | CS(=O)(=O)Cc1ccc(Nc2nccc(-c3c(-c4cccc(NC(=O)C5CCCCC5)c4)nn4ncccc34)n2)cc1 [UNC10225159A] | 12 | 10 | 5
24 | COc1cccc(OC)c1C(=O)Nc1cccc(-c2nn3ccccc3c2-c2ccnc(Nc3cccc(F)c3)n2)c1 [UNC10225310A] | 19 | 19 | 12
25 | Cc1ccc(NC(=O)Nc2cccc(C(F)(F)F)c2)cc1 [UNC10225187A] | 4 | 4 | 3

What follows are molecules tested against T3, GCN2(Kin.Dom.2,S808G) (Homo sapiens, UniProt Q9P2K8, S808G) (assay: KINOMEscan competition binding). Details: read-out: %Inh GCN2(Kin.Dom.2,S808G).
T3 sequence (Q9P2K8 590-1001 S808G limits assumed): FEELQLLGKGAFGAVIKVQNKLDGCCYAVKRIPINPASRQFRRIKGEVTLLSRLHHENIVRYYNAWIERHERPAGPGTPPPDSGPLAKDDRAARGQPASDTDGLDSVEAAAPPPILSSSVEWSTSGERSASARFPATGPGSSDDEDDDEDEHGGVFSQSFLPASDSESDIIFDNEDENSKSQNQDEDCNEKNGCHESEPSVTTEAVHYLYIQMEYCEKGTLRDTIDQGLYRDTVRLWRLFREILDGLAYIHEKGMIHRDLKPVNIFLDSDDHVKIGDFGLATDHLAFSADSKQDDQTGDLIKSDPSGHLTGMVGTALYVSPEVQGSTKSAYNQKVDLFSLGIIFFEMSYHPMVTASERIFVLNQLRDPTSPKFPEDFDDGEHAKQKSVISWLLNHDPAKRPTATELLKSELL

Row | Compound | inhibition at 1 µM
26 | O=c1cc(N2CCOCC2)nc2n(Cc3cccc(Cl)c3Cl)c(C3CC3)nn12 [UNC10225469A] | 0%
27 | Cn1cc(-c2cnc(N)c3c(-c4ccc5c(c4)CCN5C(=O)Cc4ccccc4)csc23)cn1 [UNC10225012A] | 91.2%
28 | CS(=O)(=O)Cc1ccc(Nc2nccc(-c3c(-c4cccc(NC(=O)C5CCCCC5)c4)nn4ncccc34)n2)cc1 [UNC10225159A] | 0%
29 | COc1cccc(OC)c1C(=O)Nc1cccc(-c2nn3ccccc3c2-c2ccnc(Nc3cccc(F)c3)n2)c1 [UNC10225310A] | 0%
30 | Cc1ccc(NC(=O)Nc2cccc(C(F)(F)F)c2)cc1 [UNC10225187A] | 0%

What follows are molecules tested against T4, BMX (Homo sapiens, UniProt P51813) (assay: KINOMEscan competition binding). Details: read-out: %Inh BMX.
T4 sequence (P51813 1-675): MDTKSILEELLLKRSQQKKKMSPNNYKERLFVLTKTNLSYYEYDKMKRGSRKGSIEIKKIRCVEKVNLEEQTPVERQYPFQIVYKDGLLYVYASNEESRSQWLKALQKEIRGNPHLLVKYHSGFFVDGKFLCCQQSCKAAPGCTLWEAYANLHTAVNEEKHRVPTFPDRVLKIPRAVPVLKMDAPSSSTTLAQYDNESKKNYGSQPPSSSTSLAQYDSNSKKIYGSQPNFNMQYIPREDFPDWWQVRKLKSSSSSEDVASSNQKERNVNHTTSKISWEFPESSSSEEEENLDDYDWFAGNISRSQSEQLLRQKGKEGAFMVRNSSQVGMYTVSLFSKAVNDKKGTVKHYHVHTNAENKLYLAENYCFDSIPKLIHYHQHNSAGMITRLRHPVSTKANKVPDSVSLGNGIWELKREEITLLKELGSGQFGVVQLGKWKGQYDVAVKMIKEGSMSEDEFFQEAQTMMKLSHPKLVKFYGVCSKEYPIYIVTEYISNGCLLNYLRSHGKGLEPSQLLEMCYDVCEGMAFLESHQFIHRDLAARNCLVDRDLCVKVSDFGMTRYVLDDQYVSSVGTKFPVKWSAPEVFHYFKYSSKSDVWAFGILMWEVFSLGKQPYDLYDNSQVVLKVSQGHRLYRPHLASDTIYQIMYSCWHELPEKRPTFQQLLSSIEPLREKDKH

Row | Compound | inhibition at 1 µM
31 | O=c1cc(N2CCOCC2)nc2n(Cc3cccc(Cl)c3Cl)c(C3CC3)nn12 [UNC10225469A] | 19%
32 | Cn1cc(-c2cnc(N)c3c(-c4ccc5c(c4)CCN5C(=O)Cc4ccccc4)csc23)cn1 [UNC10225012A] | 57%
33 | CS(=O)(=O)Cc1ccc(Nc2nccc(-c3c(-c4cccc(NC(=O)C5CCCCC5)c4)nn4ncccc34)n2)cc1 [UNC10225159A] | 37%
34 | COc1cccc(OC)c1C(=O)Nc1cccc(-c2nn3ccccc3c2-c2ccnc(Nc3cccc(F)c3)n2)c1 [UNC10225310A] | 21%
35 | Cc1ccc(NC(=O)Nc2cccc(C(F)(F)F)c2)cc1 [UNC10225187A] | 0%
